Measurements: US20250040543A1, “Preservative Composition” (ARXADA AG, priority 2021, published 2025)

What was measured:
C. albicans = assay: Preservation efficacy test in sterile distilled water, drop plate; assay type: cell-based, Candida albicans; settings: 7 days, pH 7, Potassium Sorbate 0 ppm
Protocol: Yeast strains were harvested and prepared in diluent (sterile distilled water) to obtain a final concentration of 1.0×10^5 to 1.0×10^6 cfu/ml.
Preservation efficacy testing started at Day 0 (t=0). Each sample was inoculated at t=0 with a known concentration of micro-organism. Each inoculated sample was then mixed until a homogenous mixture was obtained. Inoculated samples were stored in the dark at 22.5±2.5° C. throughout the test period.
At the specified contact time of 7 days (t=7), test samples were deactivated by adding a 0.1 ml aliquot of the test sample to 0.9 ml of an appropriate neutralising broth. The solution was left for 15 minutes. Subsequent dilutions were prepared by serial dilution of 0.1 ml into 0.9 ml of neutralising broth. Bacteria were serially diluted to 10^−4, Fungi were serially diluted to 10^−3.
Each serial dilution was thoroughly mixed and 25 μl drops were aliquoted onto the surface of pre-prepared agar plates. Plates were prepared in sextupicate for each sample dilution.
The agar plates were allowed to dry, then inverted and incubated under conditions appropriate for the test microorganisms.
CFU/ml was calculated taking into account dilution factors. Colonies from the incubated plates were enumerated using the lower count limit of <10 CFU/ml and the upper count limit of >330 CFU/ml.
The lower and upper limits for drop plating were only employed on the highest and lowest dilution factor plates.
The test organisms were prepared and the method was performed according to the protocol of Example 1.

Candida albicans = assay: MIC and Synergy Index (Kull) of two-component compositions; assay type: cell-based
Protocol: A wide range of concentrations were tested against Pseudomonas aeruginosa, Staphylococcus aureus, Escherichia coli, and Candda albicans.
The lowest concentration of each mixture or single compound which prevents an observable level of growth was determined to be the minimum inhibitory concentration (MIC) value.
Serial dilutions of each mixture or single compound were prepared. Micro-organisms were inoculated into media: Nutrient Broth (bacteria) or Malt Extract Broth (yeast). The final concentrations of micro-organisms in media was approximately 10^5-6 CFU/ml. The inoculated media was introduced to each of the serial dilutions at a 1:1 ratio, and incubated at 30±1° C. for 24-48 hours.
The MICs for each mixture was compared with the MIC of each single compound alone.
In this study the end point is measured by the MIC.

CCCCOC(=O)CCC(C)=O [Butyl Levulinate, butyl levulinate]
Log reduction (C. albicans; Butyl Levulinate 500 ppm): 0.11 | Log reduction (C. albicans; Butyl Levulinate 1000 ppm): 0.22 | Log reduction (C. albicans; Butyl Levulinate 1500 ppm): 0.11 | Log reduction (C. albicans; Butyl Levulinate 2000 ppm): −0.11 | Log reduction (C. albicans; Butyl Levulinate 2500 ppm): 0.18 | MIC (Candida albicans; Candida albicans, butyl levulinate alone, or its concentration in the mixture with Sodium benzoate, read-out: MIC (ppm) to inhibit growth: Butyl levulinate): 6250 µg/mL | MIC (ppm) to inhibit growth: Butyl levulinate (Candida albicans; butyl levulinate alone, or its concentration in the mixture with BIT): 6250 ppm | MIC (ppm) to inhibit growth: Butyl levulinate (Candida albicans; butyl levulinate alone, or its concentration in the mixture with DHA): 6250 ppm | MIC (ppm) to inhibit growth: Butyl levulinate (Candida albicans; butyl levulinate alone, or its concentration in the mixture with HPNO): 6250 ppm | MIC (ppm) to inhibit growth: Butyl levulinate (Candida albicans; butyl levulinate alone, or its concentration in the mixture with PHMB): 6250 ppm | MIC (ppm) to inhibit growth: Butyl levulinate (Candida albicans; butyl levulinate alone, or its concentration in the mixture with Potassium Sorbate): 6250 ppm | MIC (ppm) to inhibit growth: Butyl levulinate (Candida albicans; butyl levulinate alone, or its concentration in the mixture with Sodium pyrithione): 6250 ppm
